Common to all, as to format: biochemical
One assay addresses T1, GalNAc-T2 (Homo sapiens, UniProt Q10471).
T1 construct: the previous reported template pPICZαAgalnact2 (K75-Q571); made in house; host or cells: Pichia pastoris (pPICZαA)
Description: Transferase assay / Michaelis-Menten kinetics of GalNAc-T2. The note with it: for Vmax / Km: GalNAc-T2 (0.02 µM), pH 6.5 cacodylate, 37 °C, 0.25 mM UDP-[3H]-GalNAc, Michaelis-Menten fit (1/y weighting), ± standard deviation; for Vmax: 10 mM MnCl2, scintillation counting; for Catalytic efficiency (Vmax/Km): errors estimated from the largest percent error of Vmax or Km. How it is done:
(§1) Specific activity determinations: GalNAc-T glycosylation reactions against (glyco)peptides 1–3 were performed with 75 mM sodium cacodylate, pH 6.5, 1 mM 2-mercaptoethanol, 10 mM MnCl2, 0.25 mM [^3H]-radiolabeled UDP-GalNAc (~6 × 10^8 DPM/µmole, American Radiolabeled Chemicals Inc.), and 1.4 mM (~1.25 mg/ml) of (glyco)peptide (from 4 mM stock in 1 mM TRIS, pH ~7) and varying concentrations (0.01 to 0.5 µM) of transferase (determined by OD280), giving a final reaction volumes of 20 µl in 100 µl capped Eppendorf tubes. Reactions were incubated at 37 °C in a thermostated microplate shaker (Taitec Microincubator M-36) and quenched at the appropriate reaction time by the addition of 20 µl of 250 mM EDTA and placed on ice prior to final workup. Typically, for each transferase, glycosylation reactions were performed at the same time with all three (glyco)peptide substrates (including a no peptide control) using the same batch of transferase and the same UDP-[^3H]-GalNAc stock. Before performing time course experiments, the relative activity of each transferase was determined by trial and error against all three peptides to determine the optimal transferase concentration or incubation time that gave no more than 10% peptide glycosylation against the best substrate. Final time course experiments typically consisted of incubation times of 10, 20, and 30, or 30, 60, and 90 or 120 min (depending on activity) and were performed at least twice. Most transferases were also characterized at two different enzyme concentrations (0.01–0.03 and 0.2–0.5 µM) and the results combined. After quenching the reaction and diluting to 4 ml, free UDP and non-hydrolyzed UDP-GalNAc were removed by passage over a Dowex 1 × 8 anion exchange resin (~3 ml column). Total UDP-[^3H]-GalNAc utilization (transfer to peptide substrate and transfer to water, i.e, hydrolysis) was determined by difference after scintillation counting (Beckman LS5801 scintillation counter) 1/20 of the sample before and after passage over Dowex 1 × 8. The extent of [^3H]-GalNAc transfer to peptide and the extent of hydrolysis was determined by Sephadex G10 gel filtration analysis, typically for the longest reaction time point, as previously described. Example gel filtration chromatograms are given in Supplementary Fig. 12. Significant hydrolysis was only observed for GalNAc-T4, which was corrected for in determining its specific activity. Specific activity was obtained by calculating at each individual data time point (of the combined time course plots, Fig. 4b), an individual-specific activity, which was then averaged to obtain the overall average specific activity (and standard deviation). Specific activity is reported as nmol of glycopeptide product formed per min, per pmol of enzyme. Substrate activity ratios (i.e., substrate ratios 2/1, 3/1, and 3/2) were also obtained at each individual time point and averaged (with standard deviation). […] Note that the Microsoft Excel least squares fitting function LINEST was used to obtain the linear plots shown in Fig. 4b while fixing the y intercept to zero. Note that the specific activity calculated from the least square slope differed slightly (less than 10%) from that determined from the average of the individual time points.
(§2) Detailed enzyme kinetics on GalNAc-T4, GalNAc-T2, the GalNAc-T2 triple mutant and GalNAc-T2 chimera 3: Glycosylation reactions were performed as described above using a fixed enzyme concentration (0.06 µM for GalNAc-T4, and 0.02 µM for GalNAc-T2 and its linker constructs) with varying peptide concentrations (typically 45, 90, 180, 350, 700, 1400, and 2000 μM). Incubation times (10–90 min) were chosen such that no more than 30% of the UDP-GalNAc donor was depleted while typically giving less than 10% peptide glycosylation, after correction for UDP-GalNAc hydrolysis described above. Specific activities were obtained from one to two individual incubation time points performed in two–three separate experiments. […]

The target of assay [1] is T2, GalNAc-T2-t4Flexible linker (Chimera 3) (Homo sapiens, UniProt Q10471, A446W/D441E/D444P/E436N/F447H/H442D/I445G/Q443R/R438H).
T2 construct: made in house; host or cells: Pichia pastoris SMD1168 (pPICZαA)
The assay can be described thus: Transferase assay / Michaelis-Menten kinetics of GalNAc-T2 chimera 3. The note with it: for Vmax / Km: Chimera 3 (0.02 µM), pH 6.5 cacodylate, 37 °C, 0.25 mM UDP-[3H]-GalNAc, Michaelis-Menten fit, ± standard deviation; for Vmax: 10 mM MnCl2; for Catalytic efficiency (Vmax/Km): Chimera 3, errors estimated from the largest percent error of Vmax or Km. The method, then:
as §1, §2

The next assay deals with T3, GalNAc-T4 (Homo sapiens, UniProt Q8N4A0).
T3 construct: amino acid residues 36–578 of the human GalNAc-T4; histidine tag (C); made in house; host or cells: Pichia pastoris SMD1168 (pPICZαA, secreted)
Description: Transferase assay / Michaelis-Menten kinetics of GalNAc-T4. The note with it: for Catalytic efficiency (Vmax/Km) / Activity of GalNAc-T4 on peptide / glycosylation: GalNAc-T4; for Activity of GalNAc-T4 on peptide / glycosylation: over a range of peptide concentrations, in words. How it is done:
as §1, §2

Entries after “also recorded” stand apart in the source; their conditions may differ.

Consider 2 substances from paper PMC5716993, “The interdomain flexible linker of the polypeptide GalNAc transferases dictates their long-range glycosylation preferences” (Nature Communications, 2017).

Usually Km stands for the substrate concentration at which the rate is half of its maximum.

T1 sequence (Q10471 75-571): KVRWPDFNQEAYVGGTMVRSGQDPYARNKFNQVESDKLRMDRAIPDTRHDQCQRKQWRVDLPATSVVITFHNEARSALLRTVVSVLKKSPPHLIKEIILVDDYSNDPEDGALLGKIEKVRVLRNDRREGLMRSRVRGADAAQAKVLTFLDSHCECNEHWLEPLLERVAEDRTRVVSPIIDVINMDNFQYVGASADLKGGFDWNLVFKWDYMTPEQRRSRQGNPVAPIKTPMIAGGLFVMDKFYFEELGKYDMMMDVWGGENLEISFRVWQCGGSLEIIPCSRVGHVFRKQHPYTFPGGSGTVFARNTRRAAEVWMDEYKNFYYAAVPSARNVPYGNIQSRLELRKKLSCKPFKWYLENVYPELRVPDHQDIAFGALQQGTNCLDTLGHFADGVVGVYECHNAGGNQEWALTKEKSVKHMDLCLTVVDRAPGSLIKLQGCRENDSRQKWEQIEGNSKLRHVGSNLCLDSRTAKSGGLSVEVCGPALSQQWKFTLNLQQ
T2 sequence (Q10471 75-571 E436N/R438H/D441E/H442D/Q443R/D444P/I445G/A446W/F447H): as the sequence (Q10471 75-571) above, with E362N, R364H, D367E, H368D, Q369R, D370P, I371G, A372W, F373H counted along it
T3 sequence (Q8N4A0 36-578): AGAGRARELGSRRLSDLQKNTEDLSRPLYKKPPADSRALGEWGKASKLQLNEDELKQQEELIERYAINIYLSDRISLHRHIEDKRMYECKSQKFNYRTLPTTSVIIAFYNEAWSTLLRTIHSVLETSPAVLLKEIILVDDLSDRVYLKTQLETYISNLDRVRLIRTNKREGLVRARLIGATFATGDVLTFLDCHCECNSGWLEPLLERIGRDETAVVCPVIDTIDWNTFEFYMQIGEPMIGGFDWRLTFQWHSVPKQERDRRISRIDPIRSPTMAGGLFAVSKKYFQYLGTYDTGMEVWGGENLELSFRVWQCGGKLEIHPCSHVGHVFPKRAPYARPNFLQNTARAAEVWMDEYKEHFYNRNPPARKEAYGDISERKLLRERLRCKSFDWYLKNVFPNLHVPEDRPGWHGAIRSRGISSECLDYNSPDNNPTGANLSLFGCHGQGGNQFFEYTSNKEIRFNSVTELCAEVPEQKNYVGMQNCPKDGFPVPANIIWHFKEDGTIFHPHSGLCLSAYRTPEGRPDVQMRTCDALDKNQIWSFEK

On to “GAT*GAGAGAGTTPGPG [Peptide 3, monoglycopeptide GAT*…, T* denotes the Thr-O-GalNAc moiety]”, for which the Vmax at GalNAc-T2 is given as 3.79 ± 0.34 mM/(nmole*min); in assay [1], 3.69 ± 0.29 mM/(nmole*min); at GalNAc-T4 (Supplementary Table 2, GalNAc-T4 (0.06 µM), pH 6.5 cacodylate, 37 °C, 0.25 mM UDP-[3H]-GalNAc, 10 mM MnCl2, corrected for UDP-GalNAc hydrolysis, ± standard deviation) it was 3.09± 0.25 mM/(nmole*min). For the same substance, the Km is 750 ± 130 µM at GalNAc-T2; 990 ± 160 µM in assay [1]; about 40 µM at GalNAc-T4 (Fig. 2a and text, GalNAc-T4 (0.06 µM), Michaelis-Menten fit); 41 ± 18 µM on GalNAc-T4 (Supplementary Table 2, GalNAc-T4 (0.06 µM), pH 6.5 cacodylate, 37 °C, 0.25 mM UDP-[3H]-GalNAc, ± standard deviation). For the same substance, the “Catalytic efficiency (Vmax/Km)” value is 5.03 ± 1.8 nmol/min at GalNAc-T2 (GalNAc-T2); 3.73 ± 1.2 nmol/min in assay [1]; ~ 75 (nmole min)^−1 at GalNAc-T4 (Fig. 2a and text); 75.2 ± 34 nmol/min on GalNAc-T4 (Supplementary Table 2, errors estimated from the largest percent error of Vmax or Km). In addition, the “substrate preference of GalNAc-T2, higher substrate concentrations” value on GalNAc-T2 (in words) is recorded as “nearly equal preferences”. At GalNAc-T4, the “Activity of GalNAc-T4 on peptide / glycosylation” value was “glycosylated selectively”.

On to “AGAGTTPGPGAGAT*GA [Peptide 2, monoglycopeptide …*GA, T* denotes the Thr-O-GalNAc moiety]”, for which, at GalNAc-T2, the Vmax is reported as 3.12 ± 0.07 mM/(nmole*min) and the Michaelis constant (Km) turned out to be 180 ± 10 µM. Further, at GalNAc-T2 (GalNAc-T2), the “Catalytic efficiency (Vmax/Km)” value is 17.0 ± 2.3 nmol/min. Besides, on GalNAc-T2 (GalNAc-T2, ratio 2 over 3), the “increase in catalytic efficiency for monoglycopeptide 2 over monoglycopeptide 3” value is on record as “over threefold”. Moreover, the “Km of monoglycopeptide 2 compared to monoglycopeptide 3” value at GalNAc-T2 (GalNAc-T2, ratio, in words) is recorded as “~ fourfold lower”. Moreover, the “substrate preference of GalNAc-T2, higher substrate concentrations” value at GalNAc-T2 (in words) was “nearly equal preferences”. At GalNAc-T2 (low substrate concentrations, in words), the “substrate preference of GalNAc-T2, low substrate concentrations” value is reported as “high preference for monoglycopeptide 2 at low substrate concentrations”. In assay [1], the Vmax is recorded as 1.35 ± 0.11 mM/(nmole*min), the Km turned out to be 700 ± 140 µM and the “Catalytic efficiency (Vmax/Km)” value is 1.93 ± 0.8 nmol/min. For the same substance, the “change in kinetic parameters (Vmax, Km)” value in assay [1] (chimera 3, in words) is “changes in Vmax and Km”. In addition, on GalNAc-T4, the “Activity of GalNAc-T4 on peptide / glycosylation” value is recorded as “imperceptibly glycosylated; also recorded: too low to determine their kinetic constants; also recorded: largely unglycosylated”.
